pIC50: −log10 of the molar value.
Assays:
Bacteria = experiment: Antimicrobial activity against bacteria; assay type: functional, organism-based
Tyrosinase = target: T1, Tyrosinase (Homo sapiens, UniProt P14679); experiment: Inhibition of tyrosinase (unknown origin)
T1 sequence (P14679 whole entry): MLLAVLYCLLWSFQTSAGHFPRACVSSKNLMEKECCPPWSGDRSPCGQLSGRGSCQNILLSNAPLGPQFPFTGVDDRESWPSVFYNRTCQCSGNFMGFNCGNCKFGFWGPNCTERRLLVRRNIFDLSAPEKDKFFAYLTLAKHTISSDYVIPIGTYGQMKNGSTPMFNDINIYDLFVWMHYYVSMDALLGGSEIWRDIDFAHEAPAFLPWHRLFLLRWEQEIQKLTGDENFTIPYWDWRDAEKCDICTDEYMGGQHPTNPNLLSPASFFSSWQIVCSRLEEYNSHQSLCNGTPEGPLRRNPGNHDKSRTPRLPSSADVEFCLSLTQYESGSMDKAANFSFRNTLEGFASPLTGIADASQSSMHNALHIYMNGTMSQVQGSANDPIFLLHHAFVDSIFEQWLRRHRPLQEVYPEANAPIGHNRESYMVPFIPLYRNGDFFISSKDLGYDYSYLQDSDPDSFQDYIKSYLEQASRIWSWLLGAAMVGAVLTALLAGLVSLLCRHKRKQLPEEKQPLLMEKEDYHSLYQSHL

Leishmania = experiment: Antimicrobial activity against Leishmania; assay type: functional, organism-based
[1] = Antioxidant activity assessed as DPPH radical scavenging activity incubated for 30 mins by UV-spectrophotometric method; assay type: functional

Row | Structure (SMILES) | pIC50 (Bacteria) | pIC50 (Tyrosinase) | pIC50 (Leishmania) | pIC50 [1]
1 | COC(=O)[C@H]1O[C@@H](Oc2cc(O)c3c(=O)cc(-c4ccc(OC)cc4)oc3c2)[C@H](O)[C@@H](O)[C@@H]1O | < 4.30 | < 4.30 | < 4.30 | 
2 | C=C[C@]1(C)C[C@H](OC(=O)/C(=C/C)CO)[C@@H]2[C@H](OC(=O)[C@H]2CN2CCC[C@H]2C(=O)O)[C@H]1C(=C)CO | < 4.30 | < 4.30 | < 4.30 | 
3 | C=C(CO)C(=O)O[C@H]1C/C(C)=C/CC/C(CO)=C/[C@H]2OC(=O)[C@@H](CN3CCC[C@H]3C(=O)O)[C@H]12 | < 4.30 | < 4.30 | < 4.30 | 
4 | C=C[C@]1(C)C[C@H](OC(=O)[C@@H](C)CO)[C@@H]2[C@H](OC(=O)[C@H]2CN2CCC[C@H]2C(=O)O)[C@H]1C(=C)CO | < 4.30 | < 4.30 | < 4.30 | 
5 | C=C[C@]1(C)C[C@H](OC(=O)C(=C)CO)[C@@H]2[C@H](OC(=O)[C@H]2CN2CCC[C@H]2C(=O)O)[C@H]1C(=C)CO | < 4.30 | < 4.30 | < 4.30 | 
6 | C[C@@H]1O[C@@H](Oc2cc(O)c3c(=O)cc(-c4ccc(O)cc4)oc3c2)[C@H](O)[C@H](O)[C@H]1O | < 4.30 | < 4.30 | < 4.30 | 
7 | O=C(/C=C/c1ccc(O)c(O)c1)O[C@H]1[C@H](O)[C@@H](O)[C@H](Oc2cc(O)c3c(=O)cc(-c4ccc(O)c(O)c4)oc3c2)O[C@@H]1CO | < 4.30 | < 4.30 | < 4.30 | 4.16
8 | COC(=O)[C@H]1O[C@@H](Oc2cc(O)c3c(=O)cc(-c4ccc(O)cc4)oc3c2)[C@H](O)[C@@H](O)[C@@H]1O | < 4.30 | < 4.30 | < 4.30 | 
9 | COc1ccc(-c2cc(=O)c3c(O)cc(O[C@@H]4O[C@H](CO[C@@H]5O[C@@H](C)[C@H](O)[C@@H](O)[C@H]5O)[C@@H](O)[C@H](O)[C@H]4O)cc3o2)cc1 [ACACIIN] | < 4.30 | < 4.30 | < 4.30 | 
10 | O=c1cc(-c2ccc(O)cc2)oc2cc(O[C@@H]3O[C@H](CO)[C@@H](O)[C@H](O)[C@H]3O)cc(O)c12 [APIGETRIN] | < 4.30 | < 4.30 | < 4.30 | 
11 | COc1ccc(C[C@H]2COC(=O)[C@@H]2Cc2ccc(O[C@@H]3O[C@H](CO)[C@@H](O)[C@H](O)[C@H]3O)c(OC)c2)cc1OC [ARCTIIN] | < 4.30 | < 4.30 | < 4.30 | 
12 | O=c1c(O[C@@H]2O[C@H](CO)[C@@H](O)[C@H](O)[C@H]2O)c(-c2ccc(O)c(O)c2)oc2cc(O)cc(O)c12 [ISOQUERCETIN] | < 4.30 | < 4.30 | < 4.30 | 4.12
13 | C[C@@H]1O[C@@H](OC[C@H]2O[C@@H](Oc3cc(O)c4c(=O)cc(-c5ccc(O)cc5)oc4c3)[C@H](O)[C@@H](O)[C@@H]2O)[C@H](O)[C@H](O)[C@H]1O [ISORHOIFOLIN] | < 4.30 | < 4.30 | < 4.30 | 
14 | COc1ccc(-c2cc(=O)c3c(O)cc(O[C@@H]4O[C@H](CO)[C@@H](O)[C@H](O)[C@H]4O)cc3o2)cc1 [TILIANINE] | < 4.30 | < 4.30 | < 4.30 | 

— ChEMBL document CHEMBL4392888, “Isolation of Sesquiterpene-Amino Acid Conjugates, Onopornoids A-D, and a Flavonoid Glucoside from Onopordum alexandrinum” (J Nat Prod, 2019)
